This note sets out measurements from patent US10154992B2, “Compounds and methods for treating HIV infection” (THE REGENTS OF THE UNIVERSITY OF CALIFORNIA, priority 2016, dated 2018).

≈ marks a conversion by molar mass, not a printed value. Like-named read-outs stand apart in the source and are kept apart here.

Data set [1] in a line: MTT cell viability in Jurkat replication assay. It counts as cell-based. The conditions noted are these: human, Jurkat (E6-1) cells, pH 7.4. The method, then: (§1) Virus spreading assay. Jurkat (E6-1) cells (NIH AIDS Reagent Program) were cultured in RPMI media supplemented with 25 mM HEPES pH 7.4, 10% heat-inactivated fetal calf serum (Hyclone, Waltham Mass.), and 1% penicillin/streptomycin. 2.5×10^5 Jurkat cells were inoculated with 250 pg p24 in 250 μl media in a 96-well flat bottom polystyrene cell culture microplate. Input virus was removed after 18 hours via washing cells phosphate-buffered saline (PBS). Cells were resuspended in 250 μl of media containing compounds at the described concentrations. Cells were incubated at 37° C., 5% CO2 and supernatant samples were removed every 48 hours and replaced with fresh media containing the compounds. Viral replication was quantified using ELISA to quantify p24 viral capsid protein in the culture supernatant. Mouse monoclonal and rabbit polyclonal α-p24 antibodies used in the ELISA were obtained from the NIH AIDS Reagent Program. Toxicity was monitored using the MTT cell viability assay (Mosmann, T. (1983). J Immunol Methods 65, 55-63).

Data set [2] can be described thus: MTT cell viability in parallel with the U1 assay. It counts as cell-based. Conditions: human, U1 cells, read-out: U1 TC50. The method, then: (§2) U1 activation assay. U1 cells obtained from the AIDS Research and Reference Reagent Program were maintained under standard culture conditions in RPMI 1640 supplemented with 10% fetal bovine serum (heat inactivated), 2 mM L-glutamine, 100U/mL penicillin and 100 μg/mL streptomycin. U1 cells contain an integrated copy of a phorbol ester inducible HIV-1 provirus and addition of phytohemagglutinin (PHA) to the cell culture was used to induce virus production. On the day of the assay, the U1 cells were activated with PHA and 250,000 cells were plated in 96-well plates. Test compounds were diluted in media and applied to the cells at final concentrations from 1 to 10,000 nM. Cultures were incubated for 3 days and supernatants harvested. Cell-free virus production was measured by p24 ELISA on culture supernatant. Compound toxicity was determined by MTT cell-viability assay in parallel assays.

In data set [3] the test system is HIV-1 provirus in U1 cells. Kind of data set: U1 activation (latency) assay, p24 ELISA. It counts as cell-based. The protocol: as §2
The test system of data set [4] is HIV-1 isolate NL4-3. Kind of data set: Virus spreading / replication assay in Jurkat cells, p24 ELISA. The format is cell-based. The protocol:
as §1
A general note: ELISA stands for enzyme-linked immunosorbent assay.

Data set [5] is described as follows: MTT cell viability run in parallel with the Tat-hybrid assay. The format is cell-based. Conditions: human, Tat-hybrid reporter cell lines (HeLa); for CC50 at 48 h: Table 5, read-out: Tat hybrid TC50; for EC50 at 48 h: Table 6, second 'EC50' entry of the cell, values D/E. In short, it runs like this:
(§3)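 HeLa reporter lines (Tat-hybrid) treated with compound for 48 hours, then luciferase luminescence measured. Cytotoxicity assessed in parallel by MTT viability; thienopyridines and diaminoacridine served as controls.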

The subject of data set [6] is Tat-hybrid reporter cell lines (HeLa). Described as above. It counts as cell-based. Conditions: Table 6; at 50,000 nM. In short, it runs like this: as §3
Data set [7] in a line: Aqueous solubility pH 7.4. It counts as physicochemical. Conditions: aqueous solution, pH 7.4, pH 7.4, aqueous buffer. From the text: (§4) We next evaluated analogs 2b, 2f, 4a, and 4e in a panel of standard in vitro ADME assays to assess drug-like properties and the potential for efficacy in animals.
Data set [8] in a line: Caco-2 permeability. The format is in vitro ADME. The conditions noted are these: human.
Excerpt: as §4

Data set [9] can be described thus: Human liver microsome stability. The format is in vitro ADME. Conditions: human liver microsomes; read-out: HLM T1/2. From the text: The more lipophilic analogs 4a and 4e also appear more prone to oxidative metabolism in the presence of human liver microsomes. This is perhaps unsurprising given the presence of methoxyphenyl (4a) and benzylic methylene (4e) functions, both potential sites of oxidative metabolism.
A general note: Liver microsomes are a subcellular fraction often used to study metabolism.

The subject of data set [10] is Jurkat cells. Kind of data set: MTT cell viability in Jurkat replication assay. The format is cell-based. Conditions: Table 5; read-out: Jurkat TC50. The protocol: as §1
The mark [11] stands for this setting: Human immunodeficiency virus 1, Table 5, read-out: U1 IC50.
Setting [12] is: Human immunodeficiency virus 1, NL43, Jurkat, Table 5, read-out: Jurkat replication IC50.
The mark [13] stands for this setting: Human immunodeficiency virus 1, Table 6, read-out: U1 IC50.
Where [14] appears, read: Human immunodeficiency virus 1, read-out: U1 cell IC50 (nM).

With `NC(=O)c1cc2c(-c3ccc4ccccc4c3)cncc2s1`, in [1] (Table 5, read-out: Jurkat TC50), the CC50 is less than 40 µM. Also, the CC50 at 3 days in [2] (Table 5) was less than 40 µM. The IC50 in data set [3] (setting [11]) is less than 100 nM; in data set [4] (setting [12]) it was less than 0.1 µM. In addition, the CC50 at 48 h in data set [5] was more than 40 µM.

Regarding `NC(=O)c1cc2c(-c3cnc4ccccc4c3)cncc2s1`, the CC50 in [1] (Table 5, read-out: Jurkat TC50) is more than 40 µM. Further, the CC50 at 3 days in data set [2] (Table 5) was more than 40 µM. Moreover, the IC50 is less than 100 nM in [3] (setting [11]) and less than 0.1 µM in data set [4] (setting [12]). In [5], the CC50 at 48 h is more than 40 µM.

For the compound `CCc1c(C)nc2sc(C(N)=O)c(N)c2c1C`, in data set [2] (Table 6), the CC50 at 3 days was more than 40 µM. In addition, in data set [3] (setting [13]), the IC50 was more than 500 nM. The concentration for a half-maximal effect (EC50) at 48 h in data set [5] was more than 40 µM. The “Tat hybrid cell viability at 50,000 nM” value in [6] is on record as “Y (Y = 30-60%)”.

Turning to `NC(=O)c1sc2nccc(Nc3ccccc3)c2c1N`, in [2] (Table 6), the CC50 at 3 days is more than 40 µM. The IC50 in [3] (setting [13]) lay in the range of 100 to 500 nM. This compound had a 50% effective concentration (EC50) at 48 h in data set [5] of more than 40 µM. Also, in data set [6], the “Tat hybrid cell viability at 50,000 nM” value is reported as “Y (Y = 30-60%)”.

With `COCc1cc(C)nc2sc(C(N)=O)c(N)c12`, the CC50 at 3 days in data set [2] (Table 6) is more than 40 µM. Also, the IC50 in data set [3] (setting [13]) was more than 500 nM. Also, in [5], the EC50 at 48 h was more than 40 µM. Also, the “Tat hybrid cell viability at 50,000 nM” value in data set [6] is “X (X = >60%)”.

`NC(=O)c1sc2nc3c(c(-c4ccco4)c2c1N)CCCC3`: the CC50 at 3 days in data set [2] (Table 6) was less than 40 µM. The IC50 in data set [3] (setting [13]) is more than 500 nM. This compound had a half-maximal effective concentration (EC50) at 48 h in data set [5] of more than 40 µM. Also, the “Tat hybrid cell viability at 50,000 nM” value in data set [6] was “X (X = >60%)”.

Turning to `Cc1cc(C)c2c(N)c(C(N)=O)sc2n1`, the CC50 at 3 days in data set [2] (Table 6) was more than 40 µM. In addition, in data set [3] (setting [13]), the IC50 is more than 500 nM. In [5], this compound gave an EC50 at 48 h of more than 40 µM. Moreover, the “Tat hybrid cell viability at 50,000 nM” value in [6] is “Z (Z = <30%)”.

For `NC(=O)c1sc2cncc(N3CCCCC3)c2c1N` [Compound 2b, 3-amino-4-(piperidin-1-yl)thieno[2,3-c]pyridine-2-carboxamide], the CC50 in [1] (Jurkat infectivity assay, read-out: TC50 (MTT cell viability)) is more than 40 µM. For the same compound, the IC50 in data set [3] (setting [14]) is less than 100 nM; in [3] (Human immunodeficiency virus 1, read-out: IC50 in the U1 assay) it was 28 nM; in [4] (Human immunodeficiency virus 1, NL43, Jurkat, Table 2, NL4-3, read-out: Jurkat HIV-1 replication assay), less than 0.1 µM; in data set [4] (Human immunodeficiency virus 1, NL43, Jurkat, read-out: IC50 in the HIV replication assay), 0.0768 µM; in data set [4] (Table 1, read-out: Jurkat HIV-1 replication assay), less than 0.1 µM. The concentration in solution in [7] (solubility) was 34 µM (≈ 9.4 µg/mL). The compound further returned a Papp in [8] of 50.5 ×10⁻⁶ cm/s. Also, the half-life in data set [9] stood at 28 min.

For the compound `CC(=O)N1CCN(c2cncc3sc(C(N)=O)c(N)c23)CC1` [Compound 2f, 4-(4-acetylpiperazin-1-yl)-3-aminothieno[2,3-c]pyridine-2-carboxamide], the IC50 was 100 to 500 nM in [3] (setting [14]) and more than 0.5 µM in data set [4] (Human immunodeficiency virus 1, NL43, Jurkat, Table 1, read-out: Jurkat HIV-1 replication assay). The compound also showed a solubility in data set [7] of 258 µM (≈ 82.4 µg/mL). In data set [8], the Papp came out at 9.7 ×10⁻⁶ cm/s. In addition, the half-life in data set [9] is more than 60 min.

On to `NC(=O)c1cc2c(-c3ccc4c(c3)CCO4)cncc2s1` [drawing 128], for which the CC50 in data set [10] is less than 40 µM. In data set [2] (Table 5), the CC50 at 3 days was less than 40 µM. Further, the IC50 was less than 100 nM in data set [3] (setting [11]) and less than 0.1 µM in data set [4] (setting [12]). The CC50 at 48 h in [5] was more than 40 µM.

Take `COc1ccc(-c2cncc3sc(C(N)=O)cc23)cc1` [drawing 129]: in [1] (Table 5, read-out: Jurkat TC50), the CC50 was less than 40 µM. Further, the CC50 at 3 days in [2] (Table 5) is less than 40 µM. Moreover, the figures for the IC50 in [3] (setting [11]) and in [4] (setting [12]) were less than 100 nM and less than 0.1 µM, respectively. The CC50 at 48 h in data set [5] is less than 40 µM.

Take `NC(=O)c1sc2cncc(N3CCCCC3)c2c1N` [drawing 134]: in [10], the CC50 was more than 40 µM. Moreover, the CC50 at 3 days in data set [2] (Table 5) is less than 40 µM. In addition, the IC50 is less than 100 nM in data set [3] (setting [11]) and less than 0.1 µM in data set [4] (setting [12]). Further, in [5], the CC50 at 48 h is more than 40 µM.

With `CC(=O)N1CCN(c2cncc3sc(C(N)=O)c(N)c23)CC1` [drawing 144], in [1] (Table 5, read-out: Jurkat TC50), the CC50 is more than 40 µM. Further, the CC50 at 3 days in data set [2] (Table 5) was more than 40 µM. Besides, the IC50 in data set [3] (setting [11]) is 100 to 500 nM; in data set [4] (setting [12]), more than 0.5 µM. Also, in [5], the CC50 at 48 h was more than 40 µM.

For the compound `Cc1noc(C2CCCN(c3cncc4sc(C(N)=O)c(N)c34)C2)n1` (stereo not shown) [drawing 169], the CC50 at 3 days in [2] (Table 5) is more than 40 µM. Also, the IC50 in [3] (setting [11]) is more than 500 nM. Besides, the CC50 at 48 h in data set [5] is less than 40 µM.

The EC50 is the concentration at which the effect is half-maximal. What is called solubility is the concentration that dissolves in the medium under given conditions. Lower therefore signals little dissolved substance. As usually defined, the Papp is the rate of passage across a membrane or cell layer, normalised by area and donor concentration.
